Measurements taken from patent publication US20240358865A1, “QUINOLINYL AND PRIDINYL CONTAINING COMPOUNDS TARGETING ON ALPHA-SYNUCLEIN FOR NEUROLOGICAL DISEASES” (Washington University, priority 2023, published 2024).
Entries after “also recorded” stand apart in the source; their conditions may differ.

What was measured:
[1] = molecular target: alpha-synuclein fibrils (Homo sapiens, UniProt P37840); test: Competitive binding to alpha-synuclein fibrils vs [3H]BF2846 (site 9); conditions: for Ki / Ki (nM), in a-syn fibrils v.s. [3H]BF2846: alpha-synuclein fibrils, radioligand [3H]BF2846, binding site 9; for Ki: read-out: Ki (nM), in a-syn fibrils v.s. [3H]BF2846; for max % inh_site9: maximal inhibition of [3H]BF2846 binding to alpha-synuclein fibrils
[2] = molecular target: AD brain tissue (Homo sapiens, UniProt P05067); test: Competitive binding in AD brain tissue vs [3H]PiB; conditions: for Ki: AD brain tissue, radioligand [3H]PiB; for max % Inh_PiB: maximal inhibition of [3H]PiB binding in AD brain tissue
AD brain tissue, sequence (P05067 whole entry): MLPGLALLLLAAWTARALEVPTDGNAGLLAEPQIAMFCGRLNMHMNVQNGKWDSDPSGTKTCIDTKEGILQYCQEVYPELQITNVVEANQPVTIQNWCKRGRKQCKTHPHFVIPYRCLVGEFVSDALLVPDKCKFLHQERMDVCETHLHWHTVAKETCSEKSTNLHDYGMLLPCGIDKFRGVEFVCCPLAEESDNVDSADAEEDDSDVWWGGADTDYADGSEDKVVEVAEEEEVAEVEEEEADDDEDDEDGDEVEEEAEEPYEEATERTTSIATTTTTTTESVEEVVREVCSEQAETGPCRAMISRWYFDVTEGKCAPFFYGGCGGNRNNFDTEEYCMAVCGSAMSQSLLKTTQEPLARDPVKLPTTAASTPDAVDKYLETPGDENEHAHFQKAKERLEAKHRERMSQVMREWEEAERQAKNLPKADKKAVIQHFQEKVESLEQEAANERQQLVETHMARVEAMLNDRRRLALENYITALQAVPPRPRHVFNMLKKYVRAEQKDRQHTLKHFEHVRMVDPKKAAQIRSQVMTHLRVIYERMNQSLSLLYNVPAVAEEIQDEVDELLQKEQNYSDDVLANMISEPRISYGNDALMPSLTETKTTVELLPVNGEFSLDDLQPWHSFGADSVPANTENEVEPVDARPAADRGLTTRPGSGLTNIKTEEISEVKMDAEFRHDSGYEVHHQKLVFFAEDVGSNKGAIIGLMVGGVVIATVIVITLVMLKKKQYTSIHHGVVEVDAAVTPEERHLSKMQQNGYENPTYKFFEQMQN
Experimental: The binding potency for Abeta was determined using [^3H]PIB for these new compounds (FIG. 5B).
If the Ki value is smaller, these compounds are potent for AD brain tissue binding and are not selective for alpha-synuclein over abeta, or PD over AD.

[3] = molecular target: T1, α-synuclein fibrils amplified from PD tissue (Homo sapiens, UniProt P37840); test: Direct radioligand (homologous competitive) binding assay; conditions: read-out: binding affinity for α-synuclein fibrils
T1 construct: from tissue; host or cells: fibrils amplified from PD tissue (Banner amplified fibrils are mentioned)
Excerpt: (§1) The radiosynthesis of [^18F]TZ83-41 was accomplished by a two-step procedure with [^18F]fluoroethyl ptoluenesulfonate as a prosthetic group, followed by O-alkylation to the quinolinyl-containing phenol group. [^18F]TZ80-156 was synthesized starting from the allylic bromide precursor via nucleophilic halogen exchange (halex) reaction with [^18F]fluoride, followed by deprotection of the N-Boc amine with trifluoroacetic acid. Homologous competitive binding assays with α-synuclein fibrils amplified from PD tissue were used to determine the direct binding affinity of the two radioligands. The biodistribution study was performed in male Sprague Dawley (SD) rats at four time points (5, 30, 60 min and 120 min) after intravenous injection of the radiotracer. The uptake of radioactivity was calculated as percentage injected dose per gram (% ID/gram). Both radiotracers were evaluated with microPET imaging using a Focus 220 microPET scanner to collect dynamic scans after intravenous injection into male macaques (NHP) (FIGS. 1A-1C).
(§2) The radioligands [^18F]TZ83-41 and [^18F]TZ80-156 were successfully produced in 17±3% (n=2) and 25±5% (n=2) radiochemical yield (RCY) respectively with high molar activity (>37 GBq/μmol) and high radiochemical purity (>99%), at the end of synthesis (EOS).

[4] = tested on: Alzheimer's disease brain tissue homogenate; test: Direct radioligand binding to Alzheimer's disease brain tissue homogenate
Excerpt: as §2

[5] = MicroPET imaging of the macaque (NHP) brain; assay type: in vivo; conditions: for crossing of the blood brain barrier: NHP; for brain standardized uptake value (SUV) maximum: NHP brain, intravenous; for brain standardized uptake value (SUV) maximum / washout from the NHP brain: microPET
Excerpt: as §1

[6] = Biodistribution study in rats; assay type: in vivo, Sprague Dawley (SD) rats
Excerpt: as §1

[7] = PET studies in the brains of nonhuman primates (Example 3); assay type: in vivo
Excerpt: A PET study in nonhuman primates found uptake of [^11C]TZ61-84 (FIG. 3C).
Another PET study of [^18F]TZ80-156 and [^18F]TZ83-41 in nonhuman primates also found uptake (FIG. 4A).
A further PET study also found uptake of several additional compounds, including [^18F]TZ80-156 and [^18F]TZ83-41 (FIG. 4B).

[8] = NHP plasma radiometabolite study (column-switching HPLC); assay type: in vivo, Monkey; conditions: for Peak B (%) (parental tracer): monkey plasma
Excerpt: Monkey arterial/venous blood samples were collected at various intervals during the PET scans to measure the radio metabolite profile using the column-switching HPLC system equipped with an Oasis HLB online capture column (80 Å, 15 μm, 3.9 mm×20 mm, Waters 186001414) with Universal Guard Column holder (WAT046910, Waters) and a Agilent ZORBAX Eclipse XDB-C18 analytical column (5 μm, 250×4.6 mm, Part No. 990967-902), following a published protocol (Hilton J, et al., Nucl Med Biol. 2000 August; 27(6):627-30; Cai Z, et al., ACS Chem Neurosci. 2020 Feb. 19; 11(4):592-603).
Briefly, blood samples (vary with volume, 4-8 mL) were collected at 5, 15, 30, 60, 90 min post-injection of radiotracer. The whole blood was centrifuged at RCF 1300 g for 5 min to separate the blood cells and obtain plasma. Clean supernatant plasma was collected and added into solid urea to eliminate competitive protein binding and to allow complete backflush of the parent compound and metabolites from the capture column to analytical column. Typically, 3.2 mL of plasma is added to 2.12 g of urea to yield a final concentration of 8 M urea and a final volume of about 4.5 mL. The plasma-urea mix was then filtered through a Whatman® GD/X syringe filters (pore size 1 μm, diam. 13 mm, WHA68841310, Sigma, USA) and injected into a 5 mL HPLC loop concatenating with the capture column, which eluted with 1% acetonitrile in ammonium formate (0.1 M, pH=4.5) at 2 mL/min for 4 min. The enriched radioactivity in the short capture column was reverse flowed into an analytical C18 column with 60% acetonitrile and 40% ammonium formate (0.1 M, pH=4.5) at a flow rate of 1.0 mL/min for 25 min.
The radioactive peak B is the parental [^18F]TZ83-41 tracer with retention time of 14.3 min; one radiometabolite is peak A at 6.8 min (FIG. 2A and FIG. 2B).

SMILES | Ki [1] [nM] | max % inh_site9 [1] | Ki [2] [nM] | max % Inh_PiB [2] [%] | further results
COc1ccc(Nc2ccc3cc(OCCF)ccc3n2)cn1.Cl [TZ80-55] | 26.1 | 70% | > 1000 | – | –
COc1ccc2nc(/C=C/c3nc4ccc(OC)cc4s3)ccc2c1 [TZ90-21] | 129 ± 77 | – | 0.19 | 30 | –
COc1ccc(Nc2ccc3cc(Br)ccc3n2)cn1 [TZ64-105] | 18.7 | 50% | > 1000 | – | –
COc1ccc(Nc2ccc3cc(OC/C=C/CF)ccc3n2)cn1 [TZ80-156] | 14.9 ± 19.1 | 100% | > 1000 | – | –
COc1ccc(Nc2ccc3cc(OCCF)ccc3n2)cn1 [TZ90-3] | 34 ± 75.3 | – | 10.8 ± 8.3 | 100 | –
COc1cccc(COc2ccc3nc(Nc4ccc(OC)nc4)ccc3c2)c1 [TZ80-77] | 32.8 ± 43.8 | 100% | 15 ± 23.5 | 100 | –
COc1ccc(Nc2ccc3cc(OC/C=C/C[18F])ccc3n2)cn1 [[^18F]TZ80-156] | – | – | – | – | Kd [3]: 35 nM; binding to Alzheimer's disease brain tissue homogenate [4]: little to no binding; crossing of the blood brain barrier [5]: crossed the blood brain barrier; brain standardized uptake value (SUV) maximum [5]: ~2.0; washout from the NHP brain [5]: favorable washout rate; also recorded: favorable washout kinetics; bone uptake ([6]; 5 min): 0.45; brain uptake ([6]; 5 min): 0.86 % ID/gram; bone uptake ([6]; 30 min): 2.18; brain uptake ([6]; 30 min): 0.25 % ID/gram; brain uptake ([6]; 60 min): 0.16 % ID/gram; bone uptake ([6]; 120 min): 3.09; defluorination ([6]; judged from bone uptake): Significant defluorination; brain uptake in PET study [7]: found uptake
COc1ccc2cc(Nc3ccc(OC)nc3)ncc2c1 [TZ90-4] | 46.2 ± 39.2 | Shallow | 3.1 ± 2.3 | 100 | –
COc1ccc(Nc2ccc3ccc(N)cc3n2)cn1 [TZ64-87] | 3.07 | 50% | 36 ± 30 | 30 | –
COc1ccc2nc(Nc3cc(-c4ccccc4)n[nH]3)ccc2c1 [TZ88-5] | 55.6 | 40% | 7.1 ± 10.5 | 100 | –
CCCOc1ccc(Nc2ccc3cc(OCC[18F])ccc3n2)cn1 [[^18F]TZ83-41] | – | – | – | – | Kd [3]: 7.6 nM; binding to Alzheimer's disease brain tissue homogenate [4]: little to no binding; crossing of the blood brain barrier [5]: crossed the blood brain barrier; brain standardized uptake value (SUV) maximum [5]: ~2.0; washout from the NHP brain [5]: favorable washout rate; also recorded: favorable washout kinetics; also recorded: suitable brain washout pharmacokinetics; brain uptake (in words) ([5]; nonhuman primate brain imaging): high brain uptake; brain uptake ([6]; from 5 to 120 min): 0.71˜0.24 % ID/gram; Peak B (%) (parental tracer) ([8]; 5 min post-injection): 92%; Peak B (%) (parental tracer) ([8]; 15 min post-injection): 69%; Peak B (%) (parental tracer) ([8]; 30 min post-injection): 59%; Peak B (%) (parental tracer) ([8]; 60 min post-injection): 47%; Peak B (%) (parental tracer) ([8]; 90 min post-injection): 38%; lipophilic radiometabolite entering the brain ([8]; nonhuman primate plasma samples post injection): no lipophilic radiometabolite; brain uptake in PET study [7]: found uptake
COc1ccc(Nc2ccc3cc(OC/C=C/I)ccc3n2)cn1 [TZ61-84] | 21.5 ± 34 | 100% | 13.2 ± 17.2 | 90 | –
CCOc1ccc(Nc2ccc3cc(OCCF)ccc3n2)cn1.Cl [TZ83-40] | 13.3 ± 26.1 | 60% | 354 ± 407 | 40 | –
CCCOc1ccc(Nc2ccc3cc(OCCF)ccc3n2)cn1 [TZ83-41] | 12.5 | 60% | 362 ± 372 | 40 | –
COc1ccc2c(c1)CCC(Nc1cc(C)n[nH]1)=N2 [TZ88-7] | – | – | 90 ± 155 | 90 | Ki (nM), in a-syn fibrils v.s. [3H]BF2846 [1]: None
COc1ccc2nc(Nc3ccc4cn[nH]c4c3)ccc2c1 [TZ88-21] | – | – | 5.8 ± 4.3 | 100 | Ki (nM), in a-syn fibrils v.s. [3H]BF2846 [1]: None

SMILES | Ki [1] [nM] | max % inh_site9 [1] | Ki [2] [nM] | max % Inh_PiB [2] [%] | further results
CSc1ccc(Nc2ccc3cc(OC/C=C/I)ccc3n2)cn1 [TZ80-106] | 15 ± 12.4 | 100% | > 1000 | – | –
COc1ccc(Nc2ccc3cc(OC)ccc3n2)cc1 [TZ90-8] | – | Shallow | 2 ± 2.6 | 100 | –
COc1ccc2nc(Nc3ccc(NC(C)=O)nc3)ccc2c1 [TZ88-27] | – | – | > 1000 | – | Ki (nM), in a-syn fibrils v.s. [3H]BF2846 [1]: None
COc1ccc2nc(Nc3nc4ccc(N(C)C)cc4s3)ccc2c1 [TZ80-83] | 24.1 ± 39.7 | 100% | 50 ± 36 | 80 | –
COc1ccc2nc(Nc3ccnc(OC)c3)ccc2c1.Cl [TZ80-59-B] | 17.9 ± 31.7 | 70% | 108 ± 73 | 100 | –
COc1ccc(Nc2ccc3cc(O)ccc3n2)cn1 [TZ61-23] | 1.56 | 20% | 36 ± 37 | 30 | –
COc1ccc2nc(Nc3ccc(-n4cccn4)nc3)ccc2c1 [TZ88-11] | – | – | 46 ± 78 | 70 | Ki (nM), in a-syn fibrils v.s. [3H]BF2846 [1]: None
CC(C)Oc1ccc(Nc2ccc3cc(OCCF)ccc3n2)cn1 [TZ83-39] | 30.1 | 60% | 142 ± 103 | 20 | –
COc1ccc(Nc2ccc3cc(OC(F)F)ccc3n2)cn1 [TZ80-37] | 22.9 ± 28.2 | 60% | 99 ± 90 | 70 | –
CCc1ccc(Nc2ccc3cc(OCCN4CCCCC4)ccc3n2)cn1 [TZ80-30] | 14.3 ± 25.4 | 100% | 158 ± 36 | 80 | –
COc1ccc2nc(Nc3ccc(C=O)o3)ccc2c1 [TZ64-91] | 1.4 | 70% | 53 ± 34 | 50 | –
COc1ccc(Nc2ccc3cc(OCc4cccnc4)ccc3n2)cn1.Cl [TZ80-66-B] | 30.4 ± 42.1 | 70% | 25.2 ± 21.7 | 80 | –
COc1ccc(Nc2ccc3cc(OCc4ccncc4)ccc3n2)cn1 [TZ80-42] | 16.6 ± 22.6 | 70% | 72 ± 56 | 60 | –
COc1ccc2nc(Nc3ccc(N4CCOCC4)nc3)ccc2c1 [TZ88-18] | – | – | 1.6 ± 0.6 | 100 | Ki (nM), in a-syn fibrils v.s. [3H]BF2846 [1]: None
COc1ccc(Nc2nc3ccccc3cc2N)cn1 [TZ64-73] | 4.6 | 20% | 6.6 ± 2.7 | 30 | –
